We go through 14 compounds from patent US7727980B2, “Tricyclic androgen receptor modulator compounds and methods” (priority 2001, dated 2010).

The structures appear in SMILES notation. Where two headings read alike, the source gives them in different places. A value given as a limit tells only on which side of the number the result lay.

The Ki is the equilibrium dissociation constant of an inhibitor or competing ligand from its target. For orientation: EC50 means the concentration needed to bring the measured effect to its halfway point. One may read the IC50 as the concentration needed to halve the response being measured.

Experiment [1] has as its target T1, human AR (Homo sapiens, UniProt P10275).
T1 sequence (P10275 1-920): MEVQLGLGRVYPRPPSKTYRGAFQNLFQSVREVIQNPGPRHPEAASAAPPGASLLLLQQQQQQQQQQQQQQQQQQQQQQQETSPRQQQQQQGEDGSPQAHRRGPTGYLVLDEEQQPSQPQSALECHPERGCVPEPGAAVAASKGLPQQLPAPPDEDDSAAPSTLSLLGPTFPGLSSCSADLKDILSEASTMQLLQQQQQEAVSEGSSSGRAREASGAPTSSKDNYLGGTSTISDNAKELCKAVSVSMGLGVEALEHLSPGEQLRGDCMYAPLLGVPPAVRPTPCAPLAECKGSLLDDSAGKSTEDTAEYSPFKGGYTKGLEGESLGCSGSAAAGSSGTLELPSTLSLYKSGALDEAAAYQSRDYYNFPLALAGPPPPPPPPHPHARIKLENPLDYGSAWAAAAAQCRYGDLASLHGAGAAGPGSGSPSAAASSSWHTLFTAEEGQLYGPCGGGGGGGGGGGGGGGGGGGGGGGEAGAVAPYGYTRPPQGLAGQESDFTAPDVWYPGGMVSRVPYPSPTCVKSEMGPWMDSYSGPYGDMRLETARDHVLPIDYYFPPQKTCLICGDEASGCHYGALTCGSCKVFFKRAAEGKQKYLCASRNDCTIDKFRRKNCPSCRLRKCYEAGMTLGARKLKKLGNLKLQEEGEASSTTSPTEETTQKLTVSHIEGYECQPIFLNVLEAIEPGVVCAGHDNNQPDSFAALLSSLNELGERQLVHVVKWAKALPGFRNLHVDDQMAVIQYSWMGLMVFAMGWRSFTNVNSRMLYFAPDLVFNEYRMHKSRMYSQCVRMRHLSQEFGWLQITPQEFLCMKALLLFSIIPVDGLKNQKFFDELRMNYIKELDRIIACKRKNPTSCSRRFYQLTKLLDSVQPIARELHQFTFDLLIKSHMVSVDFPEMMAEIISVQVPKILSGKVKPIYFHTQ
The experiment is described as follows: AR whole cell competitive binding assay (3H-DHT), transfected COS-1 cells. Details: expressed in transfected cells; transient transfection with pRShAR.

The target of experiment [2] is T1, human AR. Put plainly: Co-transfection assay, AR agonist activity, CV-1 cells. Further details: expressed in transfected cells; host or cells: CV-1 cells (African green monkey kidney fibroblasts), transient transfection with pRShAR. The format is cell-based. The following applies: for EC50: AR Agonist CV-1 Cells Potency (nM), agonist potency or EC50; for AR Agonist CV-1 Cells Efficacy (%): percent maximal response relative to reference agonist DHT.

The target in experiment [3] is T1, human AR. The experiment is described as follows: Co-transfection assay, AR antagonist activity in presence of DHT, CV-1 cells. Format: cell-based. Further details: expressed in transfected cells; host or cells: CV-1 cells (African green monkey kidney fibroblasts), transient transfection with pRShAR. Conditions: for AR Antagonist CV-1 Cells Efficacy (%): percent maximal inhibition, DHT at its EC50 concentration.

Where [4] appears, read: AR Binding Ki (nM), COS-1 cells, 1 nM 3H-DHT, Cheng-Prusoff from IC50.
Setting [5] is: AR Antagonist CV-1 Cells Potency (nM), CV-1 cells, antagonist potency or IC50, DHT at its EC50 concentration.

Take `CC1C(c2ccc(N(C)C)cc2)c2c(ccc3[nH]c(=O)cc(C(F)(F)F)c23)N1CC(F)(F)F` (racemic) [Compound 137, (±)-5,6-cis-Dihydro-5-(4-dimethylaminophenyl)-6-methyl-7-(2,2,2-trifluoroethyl)-4-trifluoromethyl-7H-pyrrolo[3,2-f]quinolin-2(1H)-one]: the Ki in experiment [1] (read-out: AR Binding Ki) turned out to be 107 nM. Also, in experiment [2], the EC50 was 145 nM and the “AR Agonist CV-1 Cells Efficacy (%)” value came to 77%. Moreover, the IC50 in experiment [3] was greater than 10000 nM. Moreover, in experiment [3] (CV-1 cells), the “AR Antagonist CV-1 Cells Efficacy (%)” value was “na (na = not active (i.e. efficacy of <20 and potency of >10,000))”.

Regarding `O=c1cc(C(F)(F)F)c2c3c(ccc2[nH]1)N(CC(F)(F)F)CC3c1ccccc1` (racemic) [Compound 141, (±)-5,6-Dihydro-5-phenyl-7-(2,2,2-trifluoroethyl)-4-trifluoromethyl-7H-pyrrolo[3,2-f]quinolin-2(1H)-one], the Ki in experiment [1] (setting [4]) is 97 nM. Further, in experiment [2], a half-maximal effect (EC50) was put at 86 nM and the “AR Agonist CV-1 Cells Efficacy (%)” value turned out to be 46%. Further, the half-inhibitory concentration (IC50) in experiment [3] (setting [5]) was 34 nM. Besides, the “AR Antagonist CV-1 Cells Efficacy (%)” value in experiment [3] (CV-1 cells) turned out to be 44%.

Consider `CCCC1C(CC)c2c(ccc3[nH]c(=O)cc(C(F)(F)F)c23)N1CC(F)(F)F` (racemic) [Compound 146, (±)-5,6-Dihydro-5-ethyl-6-propyl-7-(2,2,2-trifluoroethyl)-4-trifluoromethyl-7H-pyrrolo[3,2-f]quinolin-2(1H)-one], for which the affinity in experiment [1] (setting [4]) corresponds to a Ki of 75 nM. In addition, in experiment [2], the EC50 is 49 nM and the “AR Agonist CV-1 Cells Efficacy (%)” value was determined as 38%. The IC50 in experiment [3] (setting [5]) was found to be 1 nM. In addition, in experiment [3] (CV-1 cells), the “AR Antagonist CV-1 Cells Efficacy (%)” value turned out to be 66%.

In the case of `CCC1C(C)c2c(ccc3[nH]c(=O)ccc23)N1CC(F)(F)F` (racemic) [Compound 149, (±)-5,6-cis-Dihydro-5-methyl-6-ethyl-7-(2,2,2-trifluoroethyl)-7H-pyrrolo[3,2-f]quinolin-2(1H)-one], the Ki in experiment [1] (read-out: AR Binding Ki) worked out at 127 nM. In experiment [2], the EC50 is greater than 10000 nM; the “AR Agonist CV-1 Cells Efficacy (%)” value is “na (na = not active (i.e. efficacy of <20 and potency of >10,000))”. Also, in experiment [3], the IC50 was determined as 25 nM. The “AR Antagonist CV-1 Cells Efficacy (%)” value in experiment [3] (CV-1 cells) is listed as 81%.

Compound `CCC1CCOc2c1ccc1[nH]c(=O)cc(C)c21` (racemic) [Compound 215, (±)-7,8-Dihydro-8-ethyl-4-methyl-6H-pyrano[2,3-f]quinolin-2(1H)-one] gave an inhibitory constant (Ki) in experiment [1] (setting [4]) of 47 nM. Moreover, in experiment [2], the EC50 was 2070 nM and the “AR Agonist CV-1 Cells Efficacy (%)” value was 28%. In addition, the IC50 in experiment [3] worked out at 17 nM. Also, in experiment [3] (CV-1 cells), the “AR Antagonist CV-1 Cells Efficacy (%)” value came to 77%.

Take `CCC1CCOc2cc3c(cc21)c(C(F)(F)F)c(F)c(=O)n3C` (racemic) [Compound 221, (±)-6,7-Dihydro-6-ethyl-3-fluoro-4-trifluoromethyl-1-methyl-8H-pyrano[3,2-g]quinolin-2(1H)-one]: in experiment [1] (setting [4]), the affinity, expressed as Ki, was 29 nM. In addition, in experiment [2], the EC50 was greater than 10000 nM; the “AR Agonist CV-1 Cells Efficacy (%)” value was “na (na = not active (i.e. efficacy of <20 and potency of >10,000))”. Moreover, the IC50 in experiment [3] (setting [5]) turned out to be 311 nM. Also, the “AR Antagonist CV-1 Cells Efficacy (%)” value in experiment [3] (CV-1 cells) amounted to 78%.

For the compound `O=c1cc(C(F)(F)F)c2c3c(ccc2[nH]1)N(CC(F)(F)F)C1CCCC31` (single isomer, unassigned; (+)) [Compound 178, (+)-4c,5,6,7,7a(cis),8-Hexahydro-8-(2,2,2-trifluoroethyl)-4-trifluoromethylcyclopentano-[g]pyrrolo[3,2-f]quinolin-2(1H)-one], affinity in experiment [1] (setting [4]) was put at a Ki of 900 nM. Further, in experiment [2], the EC50 is 21 nM and the “AR Agonist CV-1 Cells Efficacy (%)” value was determined as 24%. In addition, the IC50 in experiment [3] (setting [5]) amounted to 50 nM. In addition, in experiment [3] (CV-1 cells), the “AR Antagonist CV-1 Cells Efficacy (%)” value is given as 48%.

Take `O=c1cc(C(F)(F)F)c2c3c(ccc2[nH]1)N(CC(F)(F)F)C1CCCC31` (single isomer, unassigned; (-)) [Compound 179, (−)-4c,5,6,7,7a(cis),8-Hexahydro-8-(2,2,2-trifluoroethyl)-4-trifluoromethylcyclopentano-[g]pyrrolo[3,2-f]quinolin-2(1H)-one]: affinity in experiment [1] (setting [4]) was put at a Ki of 4.1 nM. In experiment [2], a half-maximal response (EC50) required 1.3 nM and the “AR Agonist CV-1 Cells Efficacy (%)” value is 91%. In addition, the IC50 in experiment [3] (setting [5]) is greater than 10000 nM. Further, the “AR Antagonist CV-1 Cells Efficacy (%)” value in experiment [3] (CV-1 cells) was “na (na = not active (i.e. efficacy of <20 and potency of >10,000))”.

Turning to `CC1(C)CCc2c(ccc3[nH]c(=O)cc(C(F)(F)F)c23)N1` [Compound 104, 5,6,7,8-Tetrahydro-7,7-dimethyl-4-trifluoromethylpyridino[3,2-f]quinolin-2(1H)-one], the Ki in experiment [1] (setting [4]) is 15 nM. In experiment [2], the EC50 worked out at 183 nM and the “AR Agonist CV-1 Cells Efficacy (%)” value was 78%. Also, the IC50 in experiment [3] (setting [5]) worked out at 1.8 nM. The “AR Antagonist CV-1 Cells Efficacy (%)” value in experiment [3] (CV-1 cells) is 50%.

In the case of `CCC1(CC)CCc2c(ccc3[nH]c(=O)cc(C(F)(F)F)c23)N1` [Compound 105, 5,6,7,8-Tetrahydro-7,7-diethyl-4-trifluoromethylpyridino[3,2-f]quinolin-2(1H)-one], in experiment [1] (setting [4]), the affinity, expressed as Ki, was 45 nM. Moreover, in experiment [2], a half-maximal response (EC50) required 32 nM and the “AR Agonist CV-1 Cells Efficacy (%)” value is 57%. For the same compound, in experiment [3] (setting [5]), the IC50 was greater than 10000 nM. Further, in experiment [3] (CV-1 cells), the “AR Antagonist CV-1 Cells Efficacy (%)” value was “na (na = not active (i.e. efficacy of <20 and potency of >10,000))”.

Turning to `CC1(C)C=Cc2c(ccc3[nH]c(=O)cc(C(F)(F)F)c23)N1` [Compound 106, 7,8-Dihydro-7,7-dimethyl-4-trifluoromethylpyridino[3,2-f]quinolin-2(1H)-one], the Ki in experiment [1] (setting [4]) is 45 nM. In addition, in experiment [2], the EC50 came to 12 nM and the “AR Agonist CV-1 Cells Efficacy (%)” value is listed as 108%. Also, in experiment [3] (setting [5]), the 50% inhibitory concentration (IC50) is greater than 10000 nM. The “AR Antagonist CV-1 Cells Efficacy (%)” value in experiment [3] (CV-1 cells) is “na (na = not active (i.e. efficacy of <20 and potency of >10,000))”.

Compound `CCN1c2ccc3[nH]c(=O)cc(C(F)(F)F)c3c2CCC1(C)C` [Compound 108, 8-Ethyl-5,6,7,8-tetrahydro-7,7-dimethyl-4-trifluoromethylpyridino[3,2-f]quinolin-2(1H)-one] had a Ki in experiment [1] (setting [4]) of 6.7 nM. Also, in experiment [2], the “AR Agonist CV-1 Cells Efficacy (%)” value amounted to 66%. The IC50 in experiment [3] (setting [5]) was greater than 10000 nM. The “AR Antagonist CV-1 Cells Efficacy (%)” value in experiment [3] (CV-1 cells) was “na (na = not active (i.e. efficacy of <20 and potency of >10,000))”.

Compound `CCCN1c2ccc3[nH]c(=O)cc(C(F)(F)F)c3c2CCC1(C)C` [Compound 109, 5,6,7,8-Tetrahydro-7,7-dimethyl-4-trifluoromethyl-8-propylpyridino[3,2-f]quinolin-2(1H)-one] showed a Ki in experiment [1] (setting [4]) of 1.2 nM. In addition, in experiment [2], the EC50 is 13 nM and the “AR Agonist CV-1 Cells Efficacy (%)” value was determined as 97%. Moreover, the IC50 in experiment [3] (setting [5]) is greater than 10000 nM. Also, the “AR Antagonist CV-1 Cells Efficacy (%)” value in experiment [3] (CV-1 cells) is “na (na = not active (i.e. efficacy of <20 and potency of >10,000))”.

`CC1(C)CCc2c(ccc3[nH]c(=O)cc(C(F)(F)F)c23)N1CC(F)(F)F` [Compound 110, 8-(2,2,2-Trifluoroethyl)-5,6,7,8-tetrahydro-7,7-dimethyl-4-trifluoromethyl-pyridino[3,2-f]quinolin-2(1H)-one] had a Ki in experiment [1] (setting [4]) of 21 nM. Moreover, in experiment [2], the EC50 came out at 21 nM and the “AR Agonist CV-1 Cells Efficacy (%)” value is 106%. For the same compound, the IC50 in experiment [3] (setting [5]) is greater than 10000 nM. Also, in experiment [3] (CV-1 cells), the “AR Antagonist CV-1 Cells Efficacy (%)” value is “na (na = not active (i.e. efficacy of <20 and potency of >10,000))”.
